Measurements published in ChEMBL document CHEMBL1158779, “Sulfur-containing polybromoindoles from the Formosan red alga Laurencia brongniartii” (J Nat Prod, 2005).
Active and inactive are the calls of the source. No cut-off for these calls is given here.

How the values were obtained:
[1] = test system: HT-29; assay: Cytotoxicity against human HT-29 cells; assay type: functional, cell-based
[2] = test system: P388; assay: Cytotoxicity against mouse P388 cells; assay type: functional, cell-based

SMILES	Activity [1]	Activity [2]
CSc1c([S+](C)[O-])[nH]c2cc(Br)cc(Br)c12 (centres undefined)	inactive	inactive
CSc1[nH]c2cc(Br)cc(Br)c2c1SC	inactive	inactive
CSc1c(Br)[nH]c2cc(Br)cc(Br)c12	inactive	inactive
C[S+]([O-])c1[nH]c2cc(Br)cc(Br)c2c1-c1c([S+](C)[O-])[nH]c2cc(Br)cc(Br)c12 (centres undefined)	inactive	Active
CSc1[nH]c2cc(Br)cc(Br)c2c1-c1c([S+](C)[O-])[nH]c2cc(Br)cc(Br)c12 (centres undefined)	Active	Active
CSc1cc2c(Br)cc(Br)cc2[nH]1	inactive	inactive
CSc1c([S+](C)[O-])[nH]c2cc(Br)c(Br)c(Br)c12 (centres undefined)	inactive	inactive
C[S+]([O-])c1[nH]c2cc(Br)cc(Br)c2c1[S+](C)[O-] (centres undefined)	inactive	inactive
CSc1[nH]c2cc(Br)cc(Br)c2c1-c1c(SC)[nH]c2cc(Br)cc(Br)c12	inactive	inactive
CSc1c(Br)[nH]c2cc(Br)c(Br)c(Br)c12	inactive	inactive
CSc1[nH]c2cc(Br)c(Br)c(Br)c2c1SC	inactive	inactive
C[S+]([O-])c1c(Br)[nH]c2cc(Br)cc(Br)c12 (centres undefined)	inactive	inactive
